In PubChem BioAssay AID248 (DTP/NCI, 2004):
Values joined by “and” are separate entries in the source; they are usually repeats but may differ in a detail not shown here. Identical values can stand only once. Inconclusive results and toxic doses are left out.

Test system: L1210 leukemia ip in BDF1 mice, survival T/C
Experiment: NCI In Vivo Anticancer Drug Screen. Data for tumor model L1210 Leukemia (intraperitoneal) in B6D2F1 (BDF1) mice
Conditions: endpoint: mean survival time, higher = longer survival
Outline: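 Value reflects the ratio of survival in compound-treated mice to survival in vehicle-treated controls, with both groups carrying the same transplanted tumor.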

[1] = dose: 100.0 mg/kg/injection, schedule: Q04DX003 (ip), vehicle: saline with Tween-80
[2] = dose: 200.0 mg/kg/injection, schedule: Q04DX003 (ip), vehicle: saline with Tween-80
[3] = dose: 400.0 mg/kg/injection, schedule: Q04DX003 (ip), vehicle: saline with Tween-80
[4] = dose: 100.0 mg/kg/injection, schedule: Q04DX002 (ip), vehicle: saline
[5] = dose: 200.0 mg/kg/injection, schedule: Q04DX002 (ip), vehicle: saline
[6] = dose: 400.0 mg/kg/injection, schedule: Q04DX002 (ip), vehicle: saline
[7] = dose: 100.0 mg/kg/injection, schedule: Q04DX003 (ip), vehicle: saline
[8] = dose: 200.0 mg/kg/injection, schedule: Q04DX003 (ip), vehicle: saline
[9] = dose: 25.0 mg/kg/injection, schedule: Q04DX003 (ip), vehicle: Klucel (hydroxypropylcellulose) (HPC)
[10] = dose: 50.0 mg/kg/injection, schedule: Q04DX003 (ip), vehicle: Klucel (hydroxypropylcellulose) (HPC)
[11] = dose: 100.0 mg/kg/injection, schedule: Q04DX003 (ip), vehicle: Klucel (hydroxypropylcellulose) (HPC)

For `O=C(Cl)c1cc2ccccc2o1`, the T/C [1] was 89 % of control, the T/C [2] was 92 % of control and the T/C [3] was 95 % of control.
`CC(=O)NC1CCCCCC1I` (stereo not drawn) was tested, and the T/C (dose: 10.0 mg/kg/injection, schedule: Q01DX001 (ip), vehicle: saline) was 105 % of control, the T/C (dose: 20.0 mg/kg/injection, schedule: Q01DX001 (ip), vehicle: saline) was 101 % of control and the T/C (dose: 40.0 mg/kg/injection, schedule: Q01DX001 (ip), vehicle: saline) was 98 % of control.
For `CC(=O)OC12CC3(C)CC(C)(C1)CC(OC(C)=O)(C3)C2`, the T/C [4] was 113 % of control, the T/C [5] was 90 % of control and the T/C [6] was 113 % of control.
With `OC(c1ccc(F)cc1)(c1ccc(F)cc1)C1CC1` the T/C (dose: 100.0 mg/kg/injection, schedule: Q01DX001 (ip), vehicle: saline with Tween-80) was 106 % of control and the T/C (dose: 200.0 mg/kg/injection, schedule: Q01DX001 (ip), vehicle: saline with Tween-80) was 105 % of control.
In the case of `CC(C)CNC(=O)Nc1ccccc1`, the T/C (dose: 75.0 mg/kg/injection, schedule: Q01DX001 (ip), vehicle: saline) is reported as 97 % of control and the T/C (dose: 150.0 mg/kg/injection, schedule: Q01DX001 (ip), vehicle: saline) is reported as 95 % of control.
With `O=C(Nc1ccc(C2=NCCN2)cc1)c1ccc(C(=O)Nc2ccc(C3=NCCN3)cc2)c(F)c1` the T/C (dose: 2.75 mg/kg/injection, schedule: Q01DX Z (ip), vehicle: carboxymethylcellulose (CMC)) was 119 % of control, the T/C (dose: 11.0 mg/kg/injection, schedule: Q01DX Z (ip), vehicle: carboxymethylcellulose (CMC)) was 122 % of control and the T/C (dose: 22.0 mg/kg/injection, schedule: Q01DX Z (ip), vehicle: carboxymethylcellulose (CMC)) was 227 % of control. For the same compound, the T/C (dose: 31.0 mg/kg/injection, schedule: Q01DX Z (oral), vehicle: carboxymethylcellulose (CMC)) was 100 % of control, the T/C (dose: 45.0 mg/kg/injection, schedule: Q01DX Z (ip), vehicle: carboxymethylcellulose (CMC)) was 291 % of control and the T/C (dose: 62.0 mg/kg/injection, schedule: Q01DX Z (oral), vehicle: carboxymethylcellulose (CMC)) was 101 % of control. The T/C (dose: 90.0 mg/kg/injection, schedule: Q01DX Z (ip), vehicle: carboxymethylcellulose (CMC)) was 167 % of control, the T/C (dose: 112.0 mg/kg/injection, schedule: Q01DX Z (oral), vehicle: carboxymethylcellulose (CMC)) was 105 % of control and the T/C (dose: 180.0 mg/kg/injection, schedule: Q01DX Z (ip), vehicle: carboxymethylcellulose (CMC)) was 94 % of control. The T/C (dose: 225.0 mg/kg/injection, schedule: Q01DX Z (oral), vehicle: carboxymethylcellulose (CMC)) was 103 % of control.
`CN(C)C(=S)[S][Pb]([c]1ccccc1)([c]1ccccc1)[c]1ccccc1` was tested, and the T/C (dose: 5.0 mg/kg/injection, schedule: Q01DX001 (ip), vehicle: steriod suspending solution) was 104 % of control, the T/C (dose: 10.0 mg/kg/injection, schedule: Q01DX001 (ip), vehicle: steriod suspending solution) was 100 % of control and the T/C (dose: 20.0 mg/kg/injection, schedule: Q01DX001 (ip), vehicle: steriod suspending solution) was 105 % of control. The T/C (dose: 40.0 mg/kg/injection, schedule: Q01DX001 (ip), vehicle: steriod suspending solution) was 96 % of control and the T/C (dose: 80.0 mg/kg/injection, schedule: Q01DX001 (ip), vehicle: steriod suspending solution) was 102 % of control.
`COc1ccc(N2C(=O)CC(Sc3ccccc3N)C2=O)cc1` (stereo not drawn) was tested, and the T/C (dose: 100.0 mg/kg/injection, schedule: Q01DX009 (ip), vehicle: other) was 102 % of control, the T/C [7] was 94 % of control and the T/C (dose: 200.0 mg/kg/injection, schedule: Q01DX009 (ip), vehicle: other) was 91 % of control. The T/C [8] was 90 % of control, the T/C (dose: 400.0 mg/kg/injection, schedule: Q01DX009 (ip), vehicle: other) was 91 % of control and the T/C (dose: 400.0 mg/kg/injection, schedule: Q04DX003 (ip), vehicle: saline) was 90 % of control.
With `CCCOC(=O)C(C)(O)C(Cl)c1ccccc1` (stereo not drawn) the T/C (dose: 37.5 mg/kg/injection, schedule: Q01DX009 (ip), vehicle: Klucel (hydroxypropylcellulose) (HPC)) was 96 % of control, the T/C (dose: 50.0 mg/kg/injection, schedule: Q01DX001 (ip), vehicle: saline) was 104 % of control and the T/C (dose: 58.0 mg/kg/injection, schedule: Q01DX001 (ip), vehicle: saline) was 108 % of control. The T/C (dose: 75.0 mg/kg/injection, schedule: Q01DX009 (ip), vehicle: Klucel (hydroxypropylcellulose) (HPC)) was 100 % of control, the T/C (dose: 88.0 mg/kg/injection, schedule: Q01DX001 (ip), vehicle: saline) was 107 % of control and the T/C (dose: 100.0 mg/kg/injection, schedule: Q01DX001 (ip), vehicle: saline) was 103 % of control. For the same compound, the T/C [4] was 109 % of control and 114 % of control, the T/C (dose: 133.0 mg/kg/injection, schedule: Q01DX001 (ip), vehicle: saline) was 103 % of control and the T/C (dose: 150.0 mg/kg/injection, schedule: Q01DX009 (ip), vehicle: Klucel (hydroxypropylcellulose) (HPC)) was 104 % of control. The T/C (dose: 200.0 mg/kg/injection, schedule: Q01DX001 (ip), vehicle: saline) was 106 % of control and 109 % of control, the T/C [5] was 117 % of control and the T/C (dose: 300.0 mg/kg/injection, schedule: Q01DX001 (ip), vehicle: saline) was 98 % of control. For the same compound, the T/C (dose: 300.0 mg/kg/injection, schedule: Q01DX009 (ip), vehicle: Klucel (hydroxypropylcellulose) (HPC)) was 104 % of control, the T/C (dose: 400.0 mg/kg/injection, schedule: Q01DX001 (ip), vehicle: saline) was 96 % of control and the T/C [6] was 105 % of control and 118 % of control.
With `O=C(O)c1cnc(Cl)c(Br)c1` the T/C [1] was 94 % of control, the T/C [2] was 94 % of control and the T/C [3] was 96 % of control.
For `C[n+]1c(/C=C/c2ccc3c(c2)OCO3)ccc2ccccc21`, the T/C (dose: 25.0 mg/kg/injection, schedule: Q01DX009 (ip), vehicle: saline with Tween-80) was 108 % of control, the T/C [9] was 106 % of control and the T/C (dose: 33.0 mg/kg/injection, schedule: Q01DX009 (ip), vehicle: gum acacia) was 114 % of control. The T/C (dose: 50.0 mg/kg/injection, schedule: Q01DX009 (ip), vehicle: gum acacia) was 98 % of control, the T/C [10] was 101 % of control and the T/C [11] was 95 % of control and 89 % of control.
`O=S(=O)(Nc1cccc2ccccc12)c1cccc2cccnc12` was tested, and the T/C [11] was 90 % of control, the T/C (dose: 200.0 mg/kg/injection, schedule: Q04DX003 (ip), vehicle: Klucel (hydroxypropylcellulose) (HPC)) was 91 % of control and the T/C (dose: 400.0 mg/kg/injection, schedule: Q04DX003 (ip), vehicle: Klucel (hydroxypropylcellulose) (HPC)) was 91 % of control.
For `O=C(C[n+]1cccc(C(=O)Nc2ccccc2)c1)Nc1ccccc1`, the T/C [7] was 95 % of control.
With `CCOc1ccc(NC(=O)Nc2cccc(F)c2)cc1` the T/C (dose: 12.5 mg/kg/injection, schedule: Q01DX009 (ip), vehicle: Klucel (hydroxypropylcellulose) (HPC)) was 88 % of control, the T/C (dose: 25.0 mg/kg/injection, schedule: Q01DX009 (ip), vehicle: Klucel (hydroxypropylcellulose) (HPC)) was 90 % of control and the T/C (dose: 50.0 mg/kg/injection, schedule: Q01DX009 (ip), vehicle: Klucel (hydroxypropylcellulose) (HPC)) was 88 % of control. For the same compound, the T/C (dose: 200.0 mg/kg/injection, schedule: Q01DX009 (ip), vehicle: Klucel (hydroxypropylcellulose) (HPC)) was 90 % of control.
For `COc1ccccc1OCCOCCNC1C(C)CCCC1(C)C` (stereo not drawn), the T/C (dose: 12.5 mg/kg/injection, schedule: Q04DX003 (ip), vehicle: Klucel (hydroxypropylcellulose) (HPC)) was 100 % of control, the T/C [9] was 94 % of control and the T/C [10] was 93 % of control. The T/C [11] was 90 % of control.
In the case of `O=c1sc2c(s1)CCCC2`, the T/C (dose: 100.0 mg/kg/injection, schedule: Q04DX002 (ip), vehicle: Klucel (hydroxypropylcellulose) (HPC)) is reported as 108 % of control, the T/C (dose: 200.0 mg/kg/injection, schedule: Q04DX002 (ip), vehicle: Klucel (hydroxypropylcellulose) (HPC)) is reported as 101 % of control and the T/C (dose: 400.0 mg/kg/injection, schedule: Q04DX002 (ip), vehicle: Klucel (hydroxypropylcellulose) (HPC)) is reported as 92 % of control.
With `C=C1C(=O)OC2CCC3OC3CCC12` (stereo not drawn) (tested in a mixture with another compound) the T/C [7] was 103 % of control and the T/C [8] was 95 % of control.
With `CCCCCCCC(=O)[O][Hg][c]1ccccc1` the T/C (dose: 9.38 mg/kg/injection, schedule: Q01DX001 (ip), vehicle: saline) was 98 % of control, the T/C (dose: 18.75 mg/kg/injection, schedule: Q01DX001 (ip), vehicle: saline) was 88 % of control and the T/C (dose: 37.5 mg/kg/injection, schedule: Q01DX001 (ip), vehicle: saline) was 102 % of control.
